Laboratory results: patent US9795595B2, “Methods for treating cancer” (Boston Biomedical, Inc., priority 2014, dated 2017)

Legend:
nuclear NANOG = experiment: Needle biopsy tumor samples before and after 28 days treatment, phase I patients: nuclear NANOG staining; format: in vivo, human; details: after 28 days treatment, patient with positive NANOG and STK33 staining
Method: (§1) Understanding the clinical relevance of the stemness markers and identifying predictive biomarkers assists clinical development by selecting patients that will most likely to derive clinical benefit from treatment with the Compound of the Invention. In current studies, we studied stemness gene marker in biopsy tumor as well as archival tumor samples from patients. […] Archival tissue from patients receiving the Compound of the Invention was analyzed via immunohistochemistry to determine whether response to the drug was correlated with either NANOG or STK33. […] Importantly, 90.9% of the tumors with STK33 nuclear staining were also positive for nuclear NANOG staining and there was a significant correlation between nuclear STK33 and nuclear NANOG (P<0.0022).

nuclear STK33 = experiment: Needle biopsy tumor samples before and after 28 days treatment, phase I patients: nuclear STK33 staining; format: in vivo, human; details: after 28 days treatment, patient with positive NANOG and STK33 staining
Method: as §1

cancer stem cell markers = experiment: Cancer stem cell markers in biopsied tumor tissue of study patients; format: in vivo, human
Method: Escalating doses from 10 mg to 450 mg once daily were administered to 26 patients. Maximum tolerated dose (MTD) was not reached. […] Of 20 evaluable patients, 11 (55%) had stable disease (SD) with a median time to progression of 16 weeks.
Encouraging signs of anti-tumor activity have been observed in pretreated patients with advanced cancer.

Advanced Solid Tumors = experiment: Dose escalation study of the Compound of the Invention in adult patients with advanced solid tumors (Phase I); format: in vivo
Source text: In this study, the Compound of the Invention was given orally, continuously, in 28-day cycles until disease progression, unacceptable toxicity, or other discontinuation criteria were met.

## CCN(CC)CCNC(=O)c1c(C)[nH]c(/C=C2\C(=O)Nc3ccc(-c4csc(-c5ccccc5)n4)cc32)c1C [Compound of the Invention]
Nuclear NANOG
  Reduction of nuclear NANOG: potent in reducing nuclear NANOG
Nuclear STK33
  Reduction of nuclear STK33: potent in reducing nuclear NANOG and STK33
Cancer stem cell markers
  Inhibition of cancer stem cell markers: inhibition of cancer stem cell markers was observed
Advanced Solid Tumors
  Patients with tumor regression and/or prolonged stable disease (≧16 weeks), percent: 50%
Advanced Solid Tumors; 450 mg once daily
  Grade 3 diarrhea, number of subjects: 2 subjects
Advanced Solid Tumors; Colorectal Cancer, 5 patients evaluable
  Number of Patients with minor regression or SD ≧16 wks.: 3
Advanced Solid Tumors; Gastric/GEJ Adenocarcinoma, 1 patient evaluable
  Number of Patients with minor regression or SD ≧16 wks.: 1
Advanced Solid Tumors; Head & Neck Cancer, 2 patients evaluable
  Number of Patients with minor regression or SD ≧16 wks.: 2
Advanced Solid Tumors; Hepatocellular Carcinoma, 2 patients evaluable
  Number of Patients with minor regression or SD ≧16 wks.: 1
Advanced Solid Tumors; Non-Small Cell Lung Cancer, 1 patient evaluable
  Number of Patients with minor regression or SD ≧16 wks.: 1
Advanced Solid Tumors; Pancreatic Neuroendocrine, 1 patient evaluable
  Number of Patients with minor regression or SD ≧16 wks.: 1
Advanced Solid Tumors; Renal Cell Carcinoma, 1 patient evaluable
  Number of Patients with minor regression or SD ≧16 wks.: 1
Advanced Solid Tumors; escalating doses 10 mg to 450 mg once daily, oral, 28-day cycles, 26 patients
  Maximum tolerated dose (MTD): not reached
Advanced Solid Tumors; including grade 1, 2 diarrhea, abdominal cramping, nausea, anorexia
  Adverse events: mild GI adverse events
Advanced Solid Tumors; of 20 evaluable patients
  Patients with stable disease (SD), number: 11
  Patients with stable disease (SD), percent: 55%
Advanced Solid Tumors; of those patients with SD
  Patients with tumor regression and/or prolonged stable disease (≧16 weeks), number: 10
Advanced Solid Tumors; once daily, oral
  Recommended Phase II Dose (RP2D): 300 mg
Advanced Solid Tumors; oral, once daily
  Pharmacokinetic exposure relative to predicted therapeutic level: well above the predicted therapeutic level
  Plasma concentration versus dose: dose-dependent increases in plasma concentration up to 300 mg once daily
Advanced Solid Tumors; oral, once daily, 10 mg to 450 mg
  Tolerability: well tolerated
Advanced Solid Tumors; patients with high levels of nuclear STK33 in archival tissue, P<0.0097
  Overall survival: improved
Advanced Solid Tumors; patients with high levels of nuclear STK33 in archival tissue, P<0.0273
  Median progression free survival (PFS): improved
Advanced Solid Tumors; patients with stable disease
  Median time to progression: 16 weeks
